Legend:
Assay type in all cases: in vivo
[1] = test system: Comstock mealybug (Pseudococcus comstocki); assay: Test Example 1: test on effects against Comstock mealybug, leaf disk spray; conditions: foliar, 168 h, first instar larvae, 7 days after application, read-out: Corrected mortality
Description: (§1) A plastic cup (diameter 9 cm, height: 4 cm) filled with tap water was covered with a plastic lid (diameter 9 cm, with a hole having a diameter of 0.5 cm at its center portion), and an absorbent cotton sheet (diameter 9 cm) as shown in FIG. 1 was placed thereon. The cut portion of the absorbent cotton sheet was put into the plastic cup through the hole at the center portion of the lid and dipped in the tap water. Filter paper (diameter 9 cm) was placed on the absorbent cotton sheet, and a kidney bean primary leaf was further placed thereon so that the abaxial side faced upward. The kidney bean primary leaf was covered with filter paper (diameter 9 cm, with a hole having a diameter of 3 cm at its center portion) to prepare a leaf disk.
(§2) Thirty first instar larvae of Comstock mealybug (Pseudococcus comstocki) were released on the hole at the center portion of the leaf disk, and the leaf disk was left at rest in a breeding room (25° C., humidity: 60%). Two days later, the number of surviving larvae in the leaf disk was examined, and then a chemical solution at predetermined concentrations of active ingredients was sprayed on the leaf disc by a rotary spraying apparatus (tower sprayers TS-301) in an application amount corresponding to 100 L/10 a, and the leaf disk was left at rest in the breeding room. Seven days after application, the number of surviving larvae was examined, and the difference with the number of surviving larvae before application was taken as the mortality. The same test was conducted using tap water as a negative control, the corrected mortality (%) was calculated in accordance with the formula 1, and the results are shown in Table 1. Further, in accordance with the Colby's formula, the theoretical value (%) was calculated based on the obtained corrected mortality and shown in brackets in Table 1. The composition of the present invention has a synergistic pesticidal effect when the corrected mortality is higher than the theoretical value by the Colby's formula. The test was conducted three times. Corrected mortality (%)=100×((morality in treated area−mortality in control area)/(100−mortality in control area)) Formula 1

[2] = test system: Comstock mealybug (Pseudococcus comstocki); assay: Test Example 3: same test as Test Example 1, different flonicamid and D-limonene concentrations; conditions: 168 h, first instar larvae, 7 days after application, read-out: Corrected mortality
Description: as §1, §2
The test was conducted in the same manner as in Test Example 1 except that the concentrations of flonicamid and D-limonene were different.

[3] = test system: Comstock mealybug (Pseudococcus comstocki); assay: Test Example 2: same test as Test Example 1, different flonicamid concentration; conditions: 168 h, first instar larvae, 7 days after application, read-out: Corrected mortality
Description: as §1
as §2, with “Corrected mortality (%)=100×((morality in treated area−mortality in control area)/(100−mortality in control area)) Formula 1” left out

Compound	mortality at 720 ppm ([1]; D-limonene 720 ppm alone)	mortality at 1440 ppm ([1]; D-limonene 1440 ppm alone)	mortality at 180 ppm ([2]; D-limonene 180 ppm alone)	mortality at 360 ppm ([2]; D-limonene 360 ppm alone)	mortality at 720 ppm ([3]; D-limonene 720 ppm alone)	mortality at 1440 ppm ([3]; D-limonene 1440 ppm alone)	mortality at 10 ppm ([1]; flonicamid 10 ppm alone)	mortality at 20 ppm ([1]; flonicamid 20 ppm alone)	mortality at 80 ppm ([2]; flonicamid 80 ppm alone)	mortality at 160 ppm ([2]; flonicamid 160 ppm alone)	mortality at 160 ppm ([3]; flonicamid 160 ppm alone)
C=C(C)[C@H]1CC=C(C)CC1 [D-Limonene, (4R)-p-menth-1,8-diene]	7.7%	27.7%	0%	35.1%	4.5%	21.3%	–	–	–	–	–
N#CCNC(=O)c1cnccc1C(F)(F)F [Flonicamid, N-cyanomethyl-4-trifluoromethyl-3-pyridinecarboxamide]	–	–	–	–	–	–	7.9%	16.1%	25.5%	55%	68.8%

Reference: US10952438B2, “Pesticidal composition and method for controlling pests” (ISHIHARA SANGYO KAISHA, LTD., priority 2017, dated 2021)
